In patent US8952024B2, “Herbicidal pyrimidone derivatives” (E I du Pont de Nemours and Company, priority 2009, dated 2015):

What was measured:
Assay type in all cases: in vivo
[1] = system: wild oat (Avena fatua); assay: Test B pre-/postemergence plant response
Method in brief: (§1)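 Each species received compound formulated in non-phytotoxic solvent with surfactant, either at planting into a loam and sand blend or as a foliar spray once plants reached 2 to 18 cm in peat-based medium. Plants stayed in the greenhouse 13 to 15 days before visual evaluation against controls, scored 0 (no effect) to 100 (complete control).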

[2] = system: Italian ryegrass (Lolium multiflorum); assay: Test D pre-/postemergence plant response
Description: (§2) Seeds of plant species selected from bermudagrass (Cynodon dactylon), Surinam grass (Brachiaria decumbens), large crabgrass (Digitaria sanguinalis), green foxtail (Setaria viridis), goosegrass (Eleusine indica), johnsongrass (Sorghum halepense), kochia (Kochia scoparia), morningglory (pitted morningglory, Ipomoea lacunosa), nutsedge (purple nutsedge, Cyperus rotundus), ragweed (common ragweed, Ambrosia elatior), black mustard (Brassica nigra), guineagrass (Panicum maximum), dallisgrass (Paspalum dilatatum), barnyardgrass (Echinochloa crus-galli), sandbur (southern sandbur, Cenchrus echinatus), sowthistle (common sowthistle, Sonchus oleraceous), prickly sida (Sida spinosa), Italian ryegrass (Lolium multiflorum), purslane (common purslane, Portulaca oleracea), signalgrass (broadleaf signalgrass, Brachiaria platyphylla), groundsel (common groundsel, Senecio vulgaris), chickweed (common chickweed, Stellaria media), dayflower (Virginia (VA) dayflower, Commelina virginica), bluegrass (annual bluegrass, Poa annua), naked crabgrass (Digitaria nuda), itchgrass (Rottboellia cochinchinensis), quackgrass (Elytrigia repens), field bindweed (Convolvulus arvensis), spanishneedles (Bidens bipinnata), mallow (common mallow, Malva sylvestris) and Russian thistle (Salsola kali), were planted into a blend of loam soil and sand and treated preemergence with test chemicals formulated in a non-phytotoxic solvent mixture which included a surfactant. At the same time, plants from these weed species were treated with postemergence applications of the test chemicals formulated in the same manner. Plants ranged in height from 2 to 18 cm (1- to 4-leaf stage) for postemergence treatments.
(§3) Treated plants and controls were maintained in a greenhouse for 14 to 21 days, after which time all species were visually evaluated and compared to controls. Plant response ratings, summarized in Table D, are based on a scale of 0 to 100 where 0 is no effect and 100 is complete control. A dash (-) response means no test result.

[3] = system: Surinam grass (Brachiaria decumbens); assay: Test D pre-/postemergence plant response
Description: as §2, §3

[4] = system: field bindweed (Convolvulus arvensis); assay: Test D pre-/postemergence plant response
Description: as §2, §3

[5] = system: groundsel (common groundsel, Senecio vulgaris); assay: Test D pre-/postemergence plant response; settings: Postemergence
Description: as §2, §3

[6] = system: guineagrass (Panicum maximum); assay: Test D pre-/postemergence plant response
Description: as §2, §3

[7] = system: johnsongrass (Sorghum halepense); assay: Test D pre-/postemergence plant response
Description: as §2, §3

[8] = system: nutsedge (purple nutsedge, Cyperus rotundus); assay: Test D pre-/postemergence plant response
Description: as §2, §3

[9] = system: prickly sida (Sida spinosa); assay: Test D pre-/postemergence plant response
Description: as §2, §3

[10] = system: galium (catchweed bedstraw, Galium aparine); assay: Test B pre-/postemergence plant response; settings: Preemergence
Method in brief: as §1

[11] = system: nightshade (eastern black nightshade, Solanum ptycanthum); assay: Test B pre-/postemergence plant response; settings: Preemergence
Method in brief: as §1

[12] = system: sunflower (common oilseed sunflower, Helianthus annuus); assay: Test B pre-/postemergence plant response; settings: Preemergence
Method in brief: as §1

[13] = Postemergence, 31 g ai/ha, scale 0 to 100
[14] = Postemergence, 62 g ai/ha, scale 0 to 100 (0 no effect, 100 complete control)
[15] = Postemergence, 125 g ai/ha, scale 0 to 100 (0 no effect, 100 complete control)
[16] = Postemergence, 16 g ai/ha, scale 0 to 100
[17] = Preemergence, 16 g ai/ha, scale 0 to 100, 0 no effect, 100 complete control
[18] = Preemergence, 31 g ai/ha, scale 0 to 100 (0 no effect, 100 complete control)
[19] = Preemergence, 125 g ai/ha, scale 0 to 100
[20] = Preemergence, 62 g ai/ha, scale 0 to 100
[21] = 62 g ai/ha, scale 0 to 100 (0 no effect, 100 complete control)
[22] = 31 g ai/ha, scale 0 to 100 (0 no effect, 100 complete control)
[23] = 125 g ai/ha, scale 0 to 100, 0 no effect, 100 complete control

Compound: COCCn1c(-c2ccccc2)ncc(C(=O)C2=C(O)CCCC2=O)c1=O [Compound 85]
- Plant response rating, Oat, Wild ([1]; 31 g ai/ha, postemergence, scale 0 to 100, 0 is no effect, 100 is complete control): 5
- Oat, Wild plant response rating (0 to 100 scale) ([1]; 62 g ai/ha, postemergence, 0 is no effect, 100 is complete control, 13 to 15 days): 25
- Plant response rating, Oat, Wild ([1]; Postemergence, 250 g ai/ha, scale 0 to 100 (0 no effect, 100 complete control)): 60
- Plant response rating, Ryegrass, Italian [2, 13]: 0
- Plant response rating, Ryegrass, Italian [2, 14]: 15
- Plant response rating, Ryegrass, Italian [2, 15]: 20
- Plant response rating, Ryegrass, Italian [2, 16]: 0
- Plant response rating, Ryegrass, Italian [2, 17]: 0
- Plant response rating, Ryegrass, Italian [2, 18]: 0
- Plant response rating, Ryegrass, Italian [2, 19]: 20
- Plant response rating, Surinam Grass [3, 13]: 75
- Plant response rating, Surinam Grass [3, 14]: 75
- Plant response rating, Surinam Grass [3, 15]: 85
- Plant response rating, Surinam Grass [3, 17]: 98
- Plant response rating, Surinam Grass [3, 18]: 100
- Plant response rating, Surinam Grass [3, 19]: 100
- Plant response rating, Field Bindweed [4, 13]: 75
- Plant response rating, Field Bindweed [4, 14]: 75
- Plant response rating, Field Bindweed [4, 15]: 75
- Plant response rating, Field Bindweed [4, 16]: 65
- Plant response rating, Field Bindweed [4, 17]: 50
- Plant response rating, Field Bindweed [4, 18]: 70
- Plant response rating, Field Bindweed [4, 20]: 70
- Plant response rating, Field Bindweed [4, 19]: 98
- Plant response rating, Groundsel ([5]; 31 g ai/ha, scale 0 to 100): 100
- Plant response rating, Groundsel [5, 21]: 100
- Plant response rating, Groundsel ([5]; 125 g ai/ha, scale 0 to 100 (0 no effect, 100 complete control)): 100
- Plant response rating, Groundsel ([5]; 16 g ai/ha, scale 0 to 100): 100
- Plant response rating, Guineagrass [6, 13]: 20
- Plant response rating, Guineagrass [6, 14]: 35
- Plant response rating, Guineagrass [6, 15]: 60
- Plant response rating, Guineagrass [6, 16]: 10
- Plant response rating, Guineagrass [6, 17]: 0
- Plant response rating, Guineagrass [6, 18]: 10
- Plant response rating, Guineagrass [6, 20]: 70
- Plant response rating, Guineagrass [6, 19]: 75
- Plant response rating, Johnsongrass [7, 13]: 50
- Plant response rating, Johnsongrass [7, 14]: 80
- Plant response rating, Johnsongrass [7, 15]: 80
- Plant response rating, Johnsongrass [7, 16]: 35
- Plant response rating, Johnsongrass [7, 17]: 50
- Plant response rating, Johnsongrass [7, 18]: 65
- Plant response rating, Johnsongrass [7, 20]: 80
- Plant response rating, Johnsongrass [7, 19]: 95
- Plant response rating, Nutsedge, Purple [8, 13]: 30
- Plant response rating, Nutsedge, Purple [8, 14]: 50
- Plant response rating, Nutsedge, Purple [8, 15]: 65
- Plant response rating, Nutsedge, Purple [8, 16]: 5
- Plant response rating, Nutsedge, Purple [8, 17]: 70
- Plant response rating, Nutsedge, Purple [8, 18]: 75
- Plant response rating, Nutsedge, Purple [8, 20]: 95
- Plant response rating, Nutsedge, Purple [8, 19]: 95
- Plant response rating, Prickly Sida [9, 13]: 95
- Plant response rating, Prickly Sida [9, 14]: 95
- Plant response rating, Prickly Sida [9, 15]: 98
- Plant response rating, Prickly Sida [9, 17]: 90
- Plant response rating, Prickly Sida [9, 18]: 100
- Plant response rating, Prickly Sida [9, 20]: 100
- Plant response rating, Prickly Sida [9, 19]: 100

Compound: CCc1ccc(-n2c(-c3ccccc3)ncc(C(=O)C3=C(O)CCCC3=O)c2=O)cc1 [Compound 219]
- Plant response rating, Galium [10, 22]: 75
- Plant response rating, Galium [10, 21]: 85
- Plant response rating, Galium [10, 23]: 98
- Galium plant response rating ([10]; 250 g ai/ha, 0 to 100 scale): 100
- Plant response rating, Nightshade [11, 22]: 90
- Plant response rating, Nightshade [11, 21]: 98
- Plant response rating, Nightshade [11, 23]: 100
- Nightshade plant response rating ([11]; 250 g ai/ha, 0 to 100 scale): 100
- Plant response rating, Sunflower [12, 22]: 0
- Plant response rating, Sunflower [12, 21]: 45
- Plant response rating, Sunflower [12, 23]: 80
- Sunflower plant response rating ([12]; 250 g ai/ha, 0 to 100 scale): 85
- Plant response rating, Oat, Wild ([1]; Postemergence, 31 g ai/ha, 0 to 100 scale (0 no effect, 100 complete control)): 50
- Plant response rating, Oat, Wild [1, 14]: 70
- Plant response rating, Oat, Wild ([1]; Postemergence, 250 g ai/ha, scale 0 to 100 (0 no effect, 100 complete control), 13 to 15 days): 85
- Plant response rating, Oat, Wild [1, 18]: 0
- Plant response rating, Oat, Wild ([1]; Preemergence, 62 g ai/ha, scale 0 to 100 (0 no effect, 100 complete control)): 0
- Plant response rating, Oat, Wild ([1]; Preemergence, 125 g ai/ha, scale 0 to 100, 0 no effect, 100 complete control): 5
- Oat, Wild plant response rating ([1]; Preemergence, 250 g ai/ha, 0 to 100 scale): 40
